Legend:
Assay type in all cases: in vivo
[1] = system: Abutilon theophrasti; assay: Post-emergence herbicidal action in greenhouse against ABUTH; settings: post-emergence spray, 600 l/ha water, visual rating after ca. 3 weeks vs untreated controls, 100% = plants dead, 0% = like control plants
From the text: (§1) Biologische Beispiele: • Die folgenden Abkürzungen werden für die in den folgenden Tabellen aufgeführten Kultur- und Schadpflanzen verwendet: ABUTH: Abutilon theophrasti ALOMY: Alopecurus myosuroides AMARE: Amaranthus retroflexus BRSNS: Brassica napus DIGSA: Digitaria sanguinalis ECHCG: Echinochloa crus-galli GLXMA: Glycine max KCHSC: Kochia scoparia LOLRI: Lolium rigidum MATIN: Matricaria inodora ORYZA: Oryza sativa PHPBU: Pharbitis purpurea POLCO: Polygonum convolvulus SETVI: Setaria viridis VERPE: Veronica persica VIOTR: Viola tricolor TRZAS: Triticum aestivum ZEAMX: Zea mays • A. Herbizide Wirkung im Nachauflauf
(§2) Samen von mono- bzw. dikotylen Unkrautpflanzen wurden in Kunststoff- oder Holzfasertöpfen in sandigem Lehmboden ausgelegt, mit Erde abgedeckt und im Gewächshaus unter kontrollierten Wachstumsbedingungen angezogen. 2 bis 3 Wochen nach der Aussaat wurden die Versuchspflanzen im Einblattstadium behandelt. Die in Form von benetzbaren Pulvern (WP) oder als Emulsionskonzentrate (EC) formulierten erfindungsgemäßen Verbindungen wurden dann als wässrige Suspension bzw. Emulsion unter Zusatz von 0,5% Additiv mit einer Wasseraufwandmenge von umgerechnet 600 l/ha auf die grünen Pflanzenteile gesprüht. Nach ca. 3 Wochen Standzeit der Versuchspflanzen im Gewächshaus, unter optimalen Wachstumsbedingungen, wurde die Wirkung der Präparate visuell im Vergleich zu unbehandelten Kontrollen bonitiert. Beispielsweise bedeutet 100% Wirkung = Pflanzen sind abgestorben, 0% Wirkung = wie Kontrollpflanzen.
(§3) In den nachstehenden Tabellen A1 bis A11 sind die Wirkungen ausgewählter Verbindungen der allgemeinen Formel (I) gemäß der Tabelle 1 auf verschiedene Schadpflanzen und einer Aufwandmenge entsprechend 20 g/ha und niedriger, die gemäß zuvor genannter Versuchsvorschrift erhalten wurden, dargestellt. Tabelle A1a: Nachauflaufwirkung bei 1,25 g/ha gegen ABUTH in %

[2] = system: Alopecurus myosuroides; assay: Post-emergence herbicidal action in greenhouse against ALOMY; settings: 20 g/ha; post-emergence spray, 600 l/ha water; visual rating after ca. 3 weeks vs untreated controls; 100% = plants dead, 0% = like control plants
From the text: as §1, §2, §3

[3] = system: Amaranthus retroflexus; assay: Post-emergence herbicidal action in greenhouse against AMARE; settings: post-emergence spray, 600 l/ha water, visual rating after ca. 3 weeks vs untreated controls, 100% = plants dead, 0% = like control plants
From the text: as §1, §2, §3

[4] = system: Digitaria sanguinalis; assay: Post-emergence herbicidal action in greenhouse against DIGSA; settings: visual rating after ca. 3 weeks
From the text: as §1, §2, §3

[5] = system: Matricaria inodora; assay: Post-emergence herbicidal action in greenhouse against MATIN; settings: visual rating after ca. 3 weeks
From the text: as §1, §2, §3

[6] = system: Pharbitis purpurea; assay: Post-emergence herbicidal action in greenhouse against PHBPU; settings: visual rating after ca. 3 weeks
From the text: as §1, §2, §3

[7] = system: Polygonum convolvulus; assay: Post-emergence herbicidal action in greenhouse against POLCO; settings: visual rating after ca. 3 weeks
From the text: as §1, §2, §3

[8] = system: Setaria viridis; assay: Post-emergence herbicidal action in greenhouse against SETVI; settings: visual rating after ca. 3 weeks
From the text: as §1, §2, §3

[9] = system: Veronica persica; assay: Post-emergence herbicidal action in greenhouse against VERPE; settings: visual rating after ca. 3 weeks
From the text: as §1, §2, §3

[10] = system: Viola tricolor; assay: Post-emergence herbicidal action in greenhouse against VIOTR; settings: visual rating after ca. 3 weeks
From the text: as §1, §2, §3

[11] = system: Triticum aestivum; assay: Post-emergence action on crop plants in greenhouse, TRZAS; settings: crop plant, visual rating after ca. 3 weeks, 100% = plants dead, 0% = like control plants
From the text: as §1
as §2, with “Kulturpflanzen” for “Unkrautpflanzen”
(§4) In den nachstehenden Tabellen B1 bis B4 sind die Wirkungen ausgewählter Verbindungen der allgemeinen Formel (I) gemäß der Tabelle 1 auf verschiedene Kulturpflanzen und einer Aufwandmenge entsprechend 20 g/ha und niedriger, die gemäß zuvor genannter Versuchsvorschrift erhalten wurden, dargestellt. Tabelle B1a: Nachauflaufwirkung bei 1,25 g/ha gegen ZEAMX in %

[12] = system: Oryza sativa; assay: Post-emergence action on crop plants in greenhouse, ORYZA; settings: crop plant, visual rating after ca. 3 weeks, 100% = plants dead, 0% = like control plants
From the text: as §1
as §2, with “Kulturpflanzen” for “Unkrautpflanzen”
as §4

[13] = system: Zea mays; assay: Post-emergence action on crop plants in greenhouse, ZEAMX; settings: 1,25 g/ha, crop plant, post-emergence, visual rating after ca. 3 weeks; 100% = plants dead, 0% = like control plants
From the text: as §1
as §2, with “Kulturpflanzen” for “Unkrautpflanzen”
as §4

SMILES | Nachauflaufwirkung gegen ABUTH ([1]; 5 g/ha) | Nachauflaufwirkung gegen ABUTH ([1]; 20 g/ha) | Nachauflaufwirkung gegen AMARE ([3]; 1,25 g/ha) | Nachauflaufwirkung gegen AMARE ([3]; 5 g/ha) | Nachauflaufwirkung gegen AMARE ([3]; 20 g/ha) | Nachauflaufwirkung gegen DIGSA ([4]; 20 g/ha) | Nachauflaufwirkung gegen MATIN ([5]; 20 g/ha) | Nachauflaufwirkung gegen PHBPU ([6]; 1,25 g/ha) | Nachauflaufwirkung gegen PHBPU ([6]; 5 g/ha) | Nachauflaufwirkung gegen PHBPU ([6]; 20 g/ha) | Nachauflaufwirkung gegen POLCO ([7]; 20 g/ha) | Nachauflaufwirkung gegen SETVI ([8]; 20 g/ha) | Nachauflaufwirkung gegen VERPE ([9]; 5 g/ha) | Nachauflaufwirkung gegen VERPE ([9]; 20 g/ha) | Nachauflaufwirkung gegen VIOTR ([10]; 1,25 g/ha) | Nachauflaufwirkung gegen VIOTR ([10]; 5 g/ha) | Nachauflaufwirkung gegen VIOTR ([10]; 20 g/ha) | Nachauflaufwirkung gegen TRZAS ([11]; 1,25 g/ha) | Nachauflaufwirkung gegen TRZAS ([11]; 5 g/ha) | Nachauflaufwirkung gegen ORYZA ([12]; 1,25 g/ha) | also measured
C=CCOC(=O)C(C)(C)OC(=O)c1cc(-n2c(=O)cc(C(F)(F)F)n(N)c2=O)c(F)cc1Cl [I.1-471, 1-(Allyloxy)-2-methyl-1-oxopropan-2-yl-5-[3-amino-2,6-dioxo-4-(trifluormethyl)-3,6-dihydropyrimidin-1(2H)-yl]-2-chlor-4-fluorbenzoat] | 100% | 100% | 100% | 100% | 100% | 100% | 100% | 100% | 100% | 100% | 100% | 100% | 100% | 100% | 90% | 100% | 100% | 0% | 20% | 0% | Nachauflaufwirkung gegen ABUTH ([1]; 1,25 g/ha): 100%; Nachauflaufwirkung gegen ALOMY [2]: 100%; Nachauflaufwirkung gegen DIGSA ([4]; 5 g/ha): 100%; Nachauflaufwirkung gegen MATIN ([5]; 5 g/ha): 100%; Nachauflaufwirkung gegen POLCO ([7]; 5 g/ha): 100%; Nachauflaufwirkung gegen SETVI ([8]; 1,25 g/ha): 100%; Nachauflaufwirkung gegen SETVI ([8]; 5 g/ha): 100%; Nachauflaufwirkung gegen VERPE ([9]; 1,25 g/ha): 100%
COCCOC(=O)C(C)(C)OC(=O)c1cc(-n2c(=O)cc(C(F)(F)F)n(N)c2=O)ccc1Cl [I.2-1] | 100% | 100% | 100% | 100% | 100% | 100% | 100% | 80% | 90% | 100% | 100% | 100% | 100% | 100% | 90% | 100% | 100% | 0% | 0% | 0% | Nachauflaufwirkung gegen ABUTH ([1]; 1,25 g/ha): 90%; Nachauflaufwirkung gegen ALOMY [2]: 80%; Nachauflaufwirkung gegen MATIN ([5]; 5 g/ha): 90%; Nachauflaufwirkung gegen SETVI ([8]; 1,25 g/ha): 100%; Nachauflaufwirkung gegen SETVI ([8]; 5 g/ha): 100%; Nachauflaufwirkung gegen VERPE ([9]; 1,25 g/ha): 80%; Nachauflaufwirkung gegen TRZAS ([11]; 20 g/ha): 10%; Nachauflaufwirkung gegen ORYZA ([12]; 5 g/ha): 0%
CC(C)(OC(=O)c1cc(-n2c(=O)cc(C(F)(F)F)n(N)c2=O)ccc1Cl)C(=O)OCC#N [I.2-176, 1-(Cyanmethoxy)-2-methyl-1-oxopropan-2-yl-5-[3-amino-2,6-dioxo-4-(trifluormethyl)-3,6-dihydropyrimidin-1(2H)-yl]-2-chlorbenzoat] | 100% | 100% | 100% | 100% | 100% | 100% | 80% | 90% | 100% | 100% | 100% | 100% | 90% | 100% | 80% | 100% | 100% | 0% | 0% | 0% | Nachauflaufwirkung gegen ABUTH ([1]; 1,25 g/ha): 80%; Nachauflaufwirkung gegen ZEAMX [13]: 20%; Nachauflaufwirkung gegen ORYZA ([12]; 5 g/ha): 20%
CC(C)=NOC(=O)C(C)(C)OC(=O)c1cc(-n2c(=O)cc(C(F)(F)F)n(N)c2=O)ccc1Cl [I.2-491] | 100% | 100% | 80% | 100% | 100% | 100% | 100% | 90% | 100% | 100% | 100% | 100% | 100% | 100% | 80% | 100% | 100% | 0% | 0% | 0% | Nachauflaufwirkung gegen DIGSA ([4]; 5 g/ha): 100%; Nachauflaufwirkung gegen MATIN ([5]; 5 g/ha): 80%; Nachauflaufwirkung gegen SETVI ([8]; 1,25 g/ha): 90%; Nachauflaufwirkung gegen SETVI ([8]; 5 g/ha): 100%; Nachauflaufwirkung gegen TRZAS ([11]; 20 g/ha): 20%; Nachauflaufwirkung gegen ORYZA ([12]; 5 g/ha): 0%
